SMILES strings stand for the structures. pIC50: −log10 of the molar value.

This assay deals with cGMP-specific 3',5'-cyclic phosphodiesterase (Homo sapiens, UniProt O76074). Nature of the assay: Inhibition of PDE5.

What is called pIC50 is the IC50 on a negative log10 scale, so that one unit is a factor of ten. A higher pIC50 goes with a small IC50. In turn, `CCOc1ccc([C@H]2c3[nH]c4ccccc4c3Cc3c(O)n(Cc4cccnc4)c(=O)n32)cc1` had a pIC50 of 7.70. For the compound `CCOc1ccc([C@H]2c3[nH]c4ccccc4c3Cc3c(O)n(CCN(C)C)c(=O)n32)cc1`, the pIC50 is 7.52. In turn, `CCCCn1c(O)c2n(c1=O)[C@H](c1ccsc1)c1[nH]c3ccccc3c1C2` [Cis-2-Butyl-10-thiophen-3-yl-3a,4,9,10-tetrahydro-2,9,10a-triaza-cyclopenta[b]fluorene-1,3-dione] gave a pIC50 of 7.52. Turning to `CCOc1ccc([C@H]2c3[nH]c4ccccc4c3Cc3c(O)[nH]c(=O)n32)cc1`, the pIC50 is 7.70. The value for `CCCCn1c(O)c2n(c1=O)[C@H](c1ccoc1)c1[nH]c3ccccc3c1C2` [(3aR,10R)-2-Butyl-10-furan-3-yl-3a,4,9,10-tetrahydro-2,9,10a-triaza-cyclopenta[b]fluorene-1,3-dione] was 7.00; that for `CCOc1ccc([C@H]2c3[nH]c4ccccc4c3Cc3c(O)n(CCn4cccc4)c(=O)n32)cc1` was 7.00.

These data come from BindingDB's records for doi:10.1016/j.bmc.2008.07.022 (Universidade Federal De Lavras-Ufla, 2008).
